According to US20230212131A1, “COLLAGEN 1 TRANSLATION INHIBITORS AND METHODS OF USE THEREOF” (Anima Biotech Inc., priority 2020, published 2023):

These compounds were tested on collagen 1 (COL1) (assay: WI-38 collagen 1 inhibition assay). Conditions: Cellular EC50, WI-38 cells; values are classes of LogEC50.
Type: cell-based, human
Procedure, shortened: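 WI-38 fibroblasts serum-starved (0.25% FBS 2 h, then none 24 h), then given a collagen induction cocktail together with compound. Cells fixed, immunostained for collagen I with DAPI counterstain, and imaged at 20×; per-cell fluorescence quantified by image analysis.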
`O=C(Nc1nc(-c2ccccc2Cl)cs1)C1CC(C(=O)N2CCOCC2)C1` (stereo not drawn) [compound 427] was tested, and the “COL1 Efficacy (LogEC50)” value was “− (−: inactive)”. For `CS(=O)(=O)N1CCN(C(=O)[C@H]2C[C@@H](C(=O)Nc3nc(-c4ccccc4Cl)cs3)C2)CC1` [compound 429], the “COL1 Efficacy (LogEC50)” value was “+ (+: >−5)”. In the case of `O=C(Nc1nc(-c2ccccc2Cl)cs1)C1CCC(N2CCOCC2)CC1` (stereo not drawn) [compound 431], the “COL1 Efficacy (LogEC50)” value is reported as “− (−: inactive)”. For `O=C(Nc1nc(-c2ccccc2Cl)cs1)C1CCC(N2CCOCC2)CC1` (stereo not drawn) [compound 432], the “COL1 Efficacy (LogEC50)” value was “− (−: inactive)”. For `COCc1cc(N2CCOCC2)ccc1C(=O)Nc1nc(-c2ccccc2Cl)cs1` [compound 436], the “COL1 Efficacy (LogEC50)” value was “− (−: inactive)”. `CN1CCN(C(=O)c2ccc(C(=O)Nc3nc(-c4ccccc4Cl)cs3)nc2)CC1` [compound 437, N-(4-(2-chlorophenyl)thiazol-2-yl)-5-(4-methylpiperazine-1-carbonyl)picolinamide] was tested, and the “COL1 Efficacy (LogEC50)” value was “++ (++: −5 to −6)”. `CS(=O)(=O)N1CCC(Oc2ccc(C(=O)Nc3nc(-c4ccccc4Cl)cs3)nc2)CC1` [compound 438, N-(4-(2-chlorophenyl)thiazol-2-yl)-5-((1-(methylsulfonyl)piperidin-4-yl)oxy)picolinamide] was tested, and the “COL1 Efficacy (LogEC50)” value was “+++ (+++: <−6)”. `CN1CCC(Oc2ccc(C(=O)Nc3nc(-c4ccccc4Cl)cs3)nc2)CC1` [compound 439, N-(4-(2-chlorophenyl)thiazol-2-yl)-5-((1-methylpiperidin-4-yl)oxy)picolinamide] was tested, and the “COL1 Efficacy (LogEC50)” value was “+++ (+++: <−6)”. With `CC(=O)N1CCC(Oc2ccc(C(=O)Nc3nc(-c4ccccc4Cl)cs3)nc2)CC1` [compound 440, 5-((1-acetylpiperidin-4-yl)oxy)-N-(4-(2-chlorophenyl)thiazol-2-yl)picolinamide] the “COL1 Efficacy (LogEC50)” value was “+++ (+++: <−6)”. In the case of `CC(=O)N1CCN(c2ccc(C(=O)Nc3nc(-c4ccccc4Cl)cs3)nc2)CC1` [compound 442, 5-(4-acetylpiperazin-1-yl)-N-(4-(2-chlorophenyl)thiazol-2-yl)picolinamide], the “COL1 Efficacy (LogEC50)” value is reported as “+++ (+++: <−6)”. In the case of `CC(=O)N1CC2(C1)CN(c1ccc(C(=O)Nc3nc(-c4ccccc4Cl)cs3)nc1)C2` [compound 449, 5-(6-acetyl-2,6-diazaspiro[3.3]heptan-2-yl)-N-(4-(2-chlorophenyl)thiazol-2-yl)picolinamide], the “COL1 Efficacy (LogEC50)” value is reported as “+++ (+++: <−6)”. `O=C(Nc1nc(-c2ccccc2Cl)cs1)c1ccc(C(=O)N2CCNCC2)cn1` [compound 451, N-(4-(2-chlorophenyl)thiazol-2-yl)-5-(piperazine-1-carbonyl)picolinamide] was tested, and the “COL1 Efficacy (LogEC50)” value was “++ (++: −5 to −6)”. With `CN1CCC2(CCN(c3ccc(C(=O)Nc4nc(-c5ccccc5Cl)cs4)nc3)CC2)C1=O` [compound 452, N-(4-(2-chlorophenyl)thiazol-2-yl)-5-(2-methyl-1-oxo-2,8-diazaspiro[4.5]decan-8-yl)picolinamide] the “COL1 Efficacy (LogEC50)” value was “+++ (+++: <−6)”. In the case of `CN1CC2(CCN(c3ccc(C(=O)Nc4nc(-c5ccccc5Cl)cs4)nc3)CC2)C1` [compound 456, N-(4-(2-chlorophenyl)thiazol-2-yl)-5-(2-methyl-2,7-diazaspiro[3.5]nonan-7-yl)picolinamide], the “COL1 Efficacy (LogEC50)” value is reported as “+++ (+++: <−6)”. In the case of `CNCc1ccccc1-c1csc(NC(=O)c2ccc(N3CCN(S(C)(=O)=O)CC3)cn2)n1` [compound 457], the “COL1 Efficacy (LogEC50)” value is reported as “− (−: inactive)”. `CC(=O)N1CCN(c2cnc(C(=O)Nc3nc(-c4ccccc4Cl)cs3)c(C)c2)CC1` [compound 458, 5-(4-acetylpiperazin-1-yl)-N-(4-(2-chlorophenyl)thiazol-2-yl)-3-methylpicolinamide] was tested, and the “COL1 Efficacy (LogEC50)” value was “+++ (+++: <−6)”. `CN1CC2(C1)CN(c1ccc(C(=O)Nc3nc(-c4ccccc4Cl)cs3)nc1)C2` [compound 459] was tested, and the “COL1 Efficacy (LogEC50)” value was “− (−: inactive)”. For `O=C(Nc1nc(-c2ccccc2Cl)cs1)c1ccc(N2CCN3CCCC3C2)cn1` (stereo not drawn) [compound 461, N-(4-(2-chlorophenyl)thiazol-2-yl)-5-(hexahydropyrrolo[1,2-a]pyrazin-2(1H)-yl)picolinamide], the “COL1 Efficacy (LogEC50)” value was “+++ (+++: <−6)”. In the case of `C[C@H]1COCCN1c1ccc(C(=O)Nc2nc(-c3ccccc3Cl)cs2)nc1` [compound 464, (S)—N-(4-(2-chlorophenyl)thiazol-2-yl)-5-(3-methylmorpholino)picolinamide], the “COL1 Efficacy (LogEC50)” value is reported as “+++ (+++: <−6)”. `O=C(Nc1nc(-c2ccccc2Cl)cs1)c1ccc(N2CCCC2=O)cn1` [compound 465] was tested, and the “COL1 Efficacy (LogEC50)” value was “− (−: inactive)”. `COCc1ccccc1-c1csc(NC(=O)c2ccc(N3CCN(C(C)=O)CC3)cn2)n1` [compound 469, 5-(4-acetylpiperazin-1-yl)-N-(4-(2-(methoxymethyl)phenyl)thiazol-2-yl)picolinamide] was tested, and the “COL1 Efficacy (LogEC50)” value was “+++ (+++: <−6)”. `CC(=O)N1CCN(c2ccc(C(=O)Nc3nc(-c4ccccc4CO)cs3)nc2)CC1` [compound 470, 5-(4-acetylpiperazin-1-yl)-N-(4-(2-(hydroxymethyl)phenyl)thiazol-2-yl)picolinamide] was tested, and the “COL1 Efficacy (LogEC50)” value was “+++ (+++: <−6)”. In the case of `COCc1ncccc1-c1csc(NC(=O)c2ccc(N3CCN(C(C)=O)CC3)cn2)n1` [compound 471, 5-(4-acetylpiperazin-1-yl)-N-(4-(2-(methoxymethyl)pyridin-3-yl)thiazol-2-yl)picolinamide], the “COL1 Efficacy (LogEC50)” value is reported as “+++ (+++: <−6)”. `CC(=O)N1CCN(c2ccc(C(=O)Nc3nc(-c4cccnc4CO)cs3)nc2)CC1` [compound 472, 5-(4-acetylpiperazin-1-yl)-N-(4-(2-(hydroxymethyl)pyridin-3-yl)thiazol-2-yl)picolinamide] was tested, and the “COL1 Efficacy (LogEC50)” value was “++ (++: −5 to −6)”. `CC(=O)N1CCN(c2ccc(C(=O)Nc3nc(-c4ccccc4Cl)cs3)c(C)c2)CC1` [compound 473, 4-(4-acetylpiperazin-1-yl)-N-(4-(2-chlorophenyl)thiazol-2-yl)-2-methylbenzamide] was tested, and the “COL1 Efficacy (LogEC50)” value was “+++ (+++: <−6)”. In the case of `CC(=O)N1CCN(c2cc(C)c(C(=O)Nc3nc(-c4ccccc4Cl)cs3)c(C)c2)CC1` [compound 474], the “COL1 Efficacy (LogEC50)” value is reported as “− (−: inactive)”. For `NC1CCN(c2ccc(C(=O)Nc3nc(-c4ccccc4Cl)cs3)nc2)CC1` [compound 475, 5-(4-aminopiperidin-1-yl)-N-(4-(2-chlorophenyl)thiazol-2-yl)picolinamide], the “COL1 Efficacy (LogEC50)” value was “+++ (+++: <−6)”. `CNC1CCN(c2ccc(C(=O)Nc3nc(-c4ccccc4Cl)cs3)nc2)CC1` [compound 476] was tested, and the “COL1 Efficacy (LogEC50)” value was “− (−: inactive)”. `O=C(Nc1nc(-c2ccccc2Cl)cs1)c1ccc(N2CCCC(O)C2)cn1` (stereo not drawn) [compound 477, N-(4-(2-chlorophenyl)thiazol-2-yl)-5-(3-hydroxypiperidin-1-yl)picolinamide] was tested, and the “COL1 Efficacy (LogEC50)” value was “+++ (+++: <−6)”. `O=C(Nc1nc(-c2ccccc2Cl)cs1)c1ccc(N2CCC(CCO)CC2)cn1` [compound 478, N-(4-(2-chlorophenyl)thiazol-2-yl)-5-(4-(2-hydroxyethyl)piperidin-1-yl)picolinamide] was tested, and the “COL1 Efficacy (LogEC50)” value was “+++ (+++: <−6)”. `O=C(Nc1nc(-c2ccccc2Cl)cs1)c1ccc(N2CCC(CO)CC2)cn1` [compound 479, N-(4-(2-chlorophenyl)thiazol-2-yl)-5-(4-(hydroxymethyl)piperidin-1-yl)picolinamide] was tested, and the “COL1 Efficacy (LogEC50)” value was “+++ (+++: <−6)”. `CC(=O)NCc1ccccc1-c1csc(NC(=O)c2ccc(N3CCN(S(C)(=O)=O)CC3)cn2)n1` [compound 480] was tested, and the “COL1 Efficacy (LogEC50)” value was “− (−: inactive)”. `O=C(Nc1nc(-c2ccccc2Cl)cs1)c1ccc(N2CCCC2)cn1` [compound 481, N-(4-(2-chlorophenyl)thiazol-2-yl)-5-(pyrrolidin-1-yl)picolinamide] was tested, and the “COL1 Efficacy (LogEC50)” value was “+++ (+++: <−6)”. `C#CCCC1(CCN2CCN(c3ccc(C(=O)Nc4nc(-c5ccccc5Cl)cs4)cc3)CC2)N=N1` [compound 484, 4-(4-(2-(3-(but-3-yn-1-yl)-3H-diazirin-3-yl)ethyl)piperazin-1-yl)-N-(4-(2-chlorophenyl)thiazol-2-yl)benzamide hemiformate] was tested, and the “COL1 Efficacy (LogEC50)” value was “+++ (+++: <−6)”. In the case of `O=C(Nc1nc(-c2ccccc2Cl)cs1)c1ccc(N2CCC[C@@H](O)C2)cn1` [compound 487, (R)—N-(4-(2-chlorophenyl)thiazol-2-yl)-5-(3-hydroxypiperidin-1-yl)picolinamide], the “COL1 Efficacy (LogEC50)” value is reported as “+++ (+++: <−6)”. For `O=C(Nc1nc(-c2ccccc2Cl)cs1)c1ccc(N2CCC[C@H](O)C2)cn1` [compound 488, (S)—N-(4-(2-chlorophenyl)thiazol-2-yl)-5-(3-hydroxypiperidin-1-yl)picolinamide], the “COL1 Efficacy (LogEC50)” value was “+++ (+++: <−6)”.
